Source: US9717737B2, “Vacuolin-1 as an inhibitor of autophagy and endosomal trafficking and the use thereof for inhibiting tumor progression” (The University of Hong Kong, priority 2014, dated 2017)

Experiments:
[1] = test system: HeLa, PC3, HepG2, MCF7, and A549 cells; assay type: cell-based
Description: MTT cell proliferation assay—Cells were treated in four replicates and seeded into 96-well plate. Following drug treatment, MTT solution of 20 μl for every 100 μl medium was added to wells and incubated for 2 hours, followed by the addition of 150 μL of the DMSO solution to each well. The final reaction product, a purple formazan solution, was detected by a microplate reader (Techan infinite M200) for absorbance at a wavelength of 570 nm and a reference wavelength of 630 nm.

[2] = test system: CNE-1 and HONE-1 cells; experiment: Migration and invasiveness of nasopharyngeal carcinoma cells; assay type: cell-based, human
Description: (§1) Although CQ has already been applied to treat a wide spectrum of human cancers, CQ induces ocular or renal toxicity and easily triggers drug resistance (Kimura et al., 2013). […] We first investigated the anti-tumor effects of vacuolin-1 in two nasopharyngeal carcinoma cell lines, CNE-1 and HONE-1. […] Alternatively, colony formation assay was performed to assess whether vacuolin-1 affects the ability of a single tumor cell to grow into a colony. […] We subsequently performed wound healing assay to assess whether vacuolin-1 affects the migration of tumor cells. […] Obviously, vacuolin-1 is an efficient anti-tumor agent in vitro.

[3] = test system: CNE-1 and HONE-1 cells; experiment: Colony formation assay, nasopharyngeal carcinoma cells; assay type: cell-based, human; settings: CNE-1 or HONE-1 cells
Description: as §1

[4] = test system: RFP-GFP-LC3 expressing HeLa cells; experiment: RFP-GFP-LC3 (tfLC3) fluorescence image-based autophagy assay; assay type: cell-based
Excerpt: Prompted by the fact that many available autophagy chemical modulators lack either potency or specificity (Kimura et al., 2013), a fluorescence image-based assay was set up to screen small molecules affecting autophagy. HeLa cells, an autophagy competent cell line, were infected with lentiviruses carrying expression cassettes that encode RFP-GFP-LC3 (tfLC3) (Kimura et al., 2007). Thus, the LC3-II positive autophagosomes are labeled with both GFP and RFP signals shown as yellow puncta, and after fusion with lysosomes, autolysosomes are shown as red only puncta because GFP loses its fluorescence in acidic pH.
Next, a panel of small chemicals that are commercially available and have been previously shown to affect vesicle trafficking or organelle morphology were selected and screened for their effects on autophagy regulation in tfLC3 expressing HeLa cells (data not shown).

[5] = test system: HeLa cells; experiment: GPN induced lysosomal Ca2+ release in Fura-2 loaded cells; assay type: cell-based; settings: 1 μM pretreatment 5 hours, GPN 200 μM
Description: Intracellular Ca^2+ measurement—Cells were cultured in 24-well plates at the density of 7×10^4 cells/well in regular medium overnight and were labeled with 4 μM Fura-2 AM (Invitrogen) in regular HMSS at room temperature for 30 min. The cells were then washed with calcium-free HMSS containing 2 mM EGTA three times and incubated in the presence or absence of vacuolin-1 at room temperature for another 10 min. Cells were put on the stage of an Olympus inverted epifluorescence microscope and visualized using a 20× objective. Fluorescence images were obtained by alternate excitation at 340 nm and 380 nm with emission set at 510 nm. Images were collected by a CCD camera every 3 or 6 seconds and analyzed by Cell R imaging software.
Since lysosome is also a major intracellular Ca^2+ pool, and Ca^2+ and protons are tightly coupled in lysosomes (Morgan et al., 2011), it was also assessed whether vacuolin-1 treatment affects the lysosomal Ca^2+ content. Treatment of cells with glycyl-1-phenylalanine 2-naphthylamide (GPN) selectively disrupts the lysosomal membrane (Jadot et al., 2001), thereby releasing the lysosomal Ca^2+ (Srinivas et al., 2002).

[6] = test system: HeLa cells; experiment: Cathepsin L processing (western blot); assay type: cell-based; settings: 1 μM
[7] = test system: HeLa cells; experiment: Western blot analyses of LC3 and p62; assay type: cell-based
Description: Western blot and Immunofluorescence staining analyses—Both assays were performed as described previously (Lu et al., 2013).

[8] = test system: human lung cancer stem cells (hLCSCs); experiment: Migration of hLCSCs; assay type: cell-based; settings: >10 μM
Excerpt: (§2) Cancer stem cells (CSCs), a subpopulation of cells within tumors, actually drive tumor growth and recurrence. CSCs are resistant to many current cancer treatments, including chemo- and radiation therapy, thus they can survive these therapy to regenerate new tumors. […] Therefore, it is of great interest to assess the anti-tumor effects of vacuolin-1 on CSCs.

[9] = target: T1, V-ATPase (purified V1V0 holoenzyme) (Manduca sexta, UniProt P31400); experiment: In vitro V-ATPase assay; assay type: biochemical, M. sexta
T1 construct: Assays contained 3 μg of purified V1V0 holoenzyme; from tissue; host or cells: Fifth instar larvae of M. sexta; The midgut goblet cell apical membrane is named only in the title of the cited Wieczorek et al. 1990, not in the method text
T1 sequence (P31400 whole entry): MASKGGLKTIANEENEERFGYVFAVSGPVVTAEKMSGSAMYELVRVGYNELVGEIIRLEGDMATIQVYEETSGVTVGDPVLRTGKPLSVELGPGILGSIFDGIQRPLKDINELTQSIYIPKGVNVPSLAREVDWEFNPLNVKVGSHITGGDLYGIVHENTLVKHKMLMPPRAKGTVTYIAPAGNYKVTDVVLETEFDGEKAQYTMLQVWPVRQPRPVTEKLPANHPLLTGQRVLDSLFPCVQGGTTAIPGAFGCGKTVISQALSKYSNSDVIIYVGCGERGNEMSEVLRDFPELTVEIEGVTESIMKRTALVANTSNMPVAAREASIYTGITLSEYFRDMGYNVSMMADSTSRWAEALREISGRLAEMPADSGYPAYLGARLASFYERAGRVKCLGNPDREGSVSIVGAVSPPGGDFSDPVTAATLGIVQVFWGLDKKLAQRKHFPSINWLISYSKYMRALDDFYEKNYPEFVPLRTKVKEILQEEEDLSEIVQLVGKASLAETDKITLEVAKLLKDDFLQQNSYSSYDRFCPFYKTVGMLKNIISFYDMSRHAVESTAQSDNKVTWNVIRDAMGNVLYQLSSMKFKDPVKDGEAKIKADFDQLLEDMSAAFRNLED
Description: V-ATPase assay—Fifth instar larvae of M. sexta (Lepidoptera, Sphingidae), weighing 6-8 g, were reared under long day conditions (16 h of light) at 27° C. using the gypsy moth diet (MP Biomedicals, Germany). The purification of the V1VO holoenzyme was performed as previously described (Huss et al., 2002). Activity assays were performed in triplicate in a final volume of 160 μL and at a pH of 8.1. Assays contained 3 μg of purified V1V0 holoenzyme, 50 mM Tris-Mops, 3 mM 2-mercaptoethanol, 1 mM MgCl2, 20 mM KCl, 0.003% C12E10, 20 mM NaCl, and 3 mM Tris-HCl. After 10 min of preincubation at 30° C., with or without inhibitors, 1 mM Tris-ATP was added and after an incubation for 2 min at 30° C. the reaction was stopped by freezing the samples in liquid nitrogen. Inorganic phosphate was determined as previously described (Wieczorek et al., 1990).

[10] = test system: human lung cancer stem cells (hLCSCs); experiment: Colony formation of hLCSCs; assay type: cell-based; settings: >10 μM
Excerpt: as §2

[11] = test system: HeLa cells; experiment: EGFR degradation assay; assay type: cell-based; settings: HeLa cells treated with EGF
Description: Since the increase of lysosomal pH normally compromises the lysosomal activity, it was assessed whether vacuolin-1 affects the general lysosomal functions to inhibit autophagy maturation. […] Next, an epidermal growth factor receptor (EGFR) degradation assay was performed to examine whether vacuolin-1 affects the general endosomal-lysosomal pathway. In this assay, HeLa cells were treated with EGF in the presence or absence of vacuolin-1. After EGF binds to its receptors (EGFR), the receptor complex undergoes endocytosis and is targeted tolysosomes for degradation. […] Similarly, a DQ-BSA-green degradation assay was applied to measure the general endosomal-lysosomal degradation. DQ-BSA-green is a BSA labeled with a self-quenching fluorescent dye. After DQ-BSA-green is delivered to lysosomes via endocytosis, it is hydrolyzed into single dye-labeled peptides by lysosomal proteases, thereby relieving self-quenching and the fluorescence can subsequently be monitored by flow cytometry.

[12] = test system: human lung cancer stem cells (hLCSCs); experiment: Autophagy inhibition in lung cancer stem cells; assay type: cell-based
Excerpt: as §2

SMILES: Ic1cccc(/C=N/Nc2nc(N3CCOCC3)nc(N(c3ccccc3)c3ccccc3)n2)c1 [vacuolin-1]
- cell toxicity (MTT cell viability) [1]: much less cell toxicity than CQ
- migration ([2]; FIG. 16D): markedly inhibited
- invasiveness ([2]; FIG. 16E): markedly inhibited
- size and number of colonies generated from single cell [3]: dramatically reduced the size and number of colonies
- LC3 puncta (yellow = autophagosomes, red only = autolysosomes) [4]: potently induced LC3 yellow puncta, not red puncta
- GPN induced lysosomal Ca2+ release [5]: significantly lowered
- levels of immature form of cathepsin L [6]: markedly increase
- processing of cathepsin L into its mature form [6]: not affected
- fusion block between autophagosomes and lysosomes after removal of compound (reversibility) ([7]; 3 hours after removal from the medium, HeLa cells, 1 μM): completely relieved
- potency in suppressing autophagy relative to CQ ([7]; HeLa and PC3 cells, 6 hours, LC3 and p62 western blot): at least ten times more potent than CQ
- lipidated LC3-II level ([7]; HeLa cells, vacuolin-1 1 μM): markedly increased
- p62 level ([7]; HeLa cells, vacuolin-1 1 μM): accumulated
- migration of hLCSCs [8]: almost completely inhibited
- V-ATPase activity in vitro [9]: little effects
- colony formation of hLCSCs [10]: almost completely inhibited
- EGF-triggered EGFR degradation [11]: inhibited EGF-triggered EGFR degradation
- autophagy inhibition potency in hLCSCs relative to other tumor cell lines (times less potent) [12]: 10 times
